Test results published in US11840686B2, “Modulation of prekallikrein (PKK) expression” (Ionis Pharmaceuticals, Inc., priority 2013, dated 2023).
Strand notation (5' to 3'): a small letter for the sugar, then the base; units joined by * are phosphorothioate-linked, units joined directly phosphodiester-linked; [ ] holds rarer units or linkages, { } end groups; capitals alone tell only the bases. e = 2'-O-(2-methoxyethyl) (MOE); k = constrained ethyl (cEt); [5mC] = 5-methylcytosine; d = 2'-deoxy (DNA)

Columns and labels:
[1] = test system: human PKK mRNA; assay: Antisense inhibition of human PKK mRNA in HepaRG cells, 5,000 nM (Example 2); assay type: cell-based
Method in brief: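 Chimeric MOE gapmers with full phosphorothioate backbones were tested once at 5,000 nM in electroporated HepaRG cells. After about 24 hours, quantitative PCR measured PKK mRNA relative to untreated control cells.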

[2] = test system: human PKK mRNA; assay: Dose-dependent antisense inhibition of human PKK in HepaRG cells, 0.19-5.00 uM (Example 5); assay type: cell-based
Method in brief: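 PKK mRNA knockdown was measured by real-time PCR (primer probe set RTS3454) about 16 h after electroporating 20,000 HepaRG cells per well with oligonucleotide at four doses from 0.19 to 5.00 μM. Levels were adjusted to RIBOGREEN-measured total RNA, and IC50 values were calculated.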

[3] = test system: human PKK mRNA; assay: Human PKK mRNA in liver of human KLKB1 transgenic mice (Example 7); assay type: in vivo; conditions: twice a week for 3 weeks
Protocol: (§1) Transgenic mice containing a 37,390 base pair fragment of the human KLKB1 gene sequence (chromosome 4: position 187148672-187179625, accession no: NC_000004.11) were treated with ISIS antisense oligonucleotides selected from studies described above, which were evaluated for efficacy in this model.
(§2) Groups of transgenic mice were injected subcutaneously twice a week for 3 weeks with 2.5 mg/kg/week, 5.0 mg/kg/week, 10 mg/kg/week or 20 mg/kg/week of ISIS 546232, ISIS 546251, ISIS 546254, ISIS 546343, ISIS 546828, ISIS 547455, ISIS 547457, ISIS 547927, and ISIS 548048. One group of transgenic mice was injected subcutaneously twice a week for 3 weeks with PBS. Mice were euthanized 48 hours after the last dose, and organs and plasma were harvested for further analysis.
To evaluate the effect of ISIS oligonucleotides on target reduction, RNA was extracted from liver tissue for real-time PCR analysis of human PKK. Results are presented as percent inhibition of PKK mRNA, relative to PBS control.

[4] = test system: PKK protein; assay: Plasma PKK protein levels in human KLKB1 transgenic mice (Example 7); assay type: in vivo; conditions: plasma, twice a week for 3 weeks
Protocol: as §1, §2
Plasma PKK protein levels were evaluated in all groups. Results are presented as percent inhibition of PKK protein, relative to PBS control.

[5] = test system: PKK mRNA; assay: PKK mRNA in cynomolgus monkey liver (Example 8); assay type: in vivo; conditions: 40 mg/kg s.c., loading then weekly to week 13; day 87 or 88, 48 h after final dose
Protocol: Cynomolgus monkeys were treated with ISIS antisense oligonucleotides selected from studies described above. Antisense oligonucleotide efficacy and tolerability were evaluated. The human antisense oligonucleotides tested are cross-reactive with the rhesus genomic sequence (GENBANK Accession No. NW_001118167.1 truncated from nucleotides 2358000 to 2391000 and designated herein as SEQ ID NO: 18).
On day 87 or 88, 48 hours after the final dose, RNA was extracted from liver tissue for real-time PCR analysis of PKK using primer probe set RTS3455 (forward sequence […], designated herein as SEQ ID NO: 23; reverse sequence […], designated herein as SEQ ID NO: 24; probe sequence […], designated herein as SEQ ID NO: 25). The results were normalized to the housekeeping gene, Cyclophilin. Results are presented as percent inhibition of PKK mRNA, relative to PBS control.

[6] = test system: human PKK mRNA; assay: Antisense inhibition of human PKK mRNA in HepaRG cells, 1,000 nM, MOE/deoxy/cEt oligonucleotides (Example 3); assay type: cell-based; conditions: HepaRG cells, electroporation with 1,000 nM antisense oligonucleotide, approximately 24 hours, primer probe set RTS3454, relative to untreated control cells; experiment of Table 23
Method in brief: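 Readout is percent PKK mRNA reduction against untreated controls, by real-time PCR (RTS3454) adjusted for total RNA via RIBOGREEN. Oligonucleotides, phosphorothioate gapmers of 16 nucleosides with cEt, MOE and deoxy sugars, were delivered at 1,000 nM by electroporation to 20,000 HepaRG cells/well for roughly 24 h.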

[7] = test system: human PKK mRNA; assay: Dose-dependent antisense inhibition of human PKK in HepaRG cells, 0.11-3.00 uM (Example 6); assay type: cell-based; conditions: electroporation, approx. 16 hours, relative to untreated control cells
Method in brief: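 Antisense oligonucleotides were tested over 0.11–3.00 μM, delivered by electroporation, with readout after roughly 16 h. Human PKK transcript was measured by real-time PCR (set RTS3454) and adjusted to RIBOGREEN total RNA, giving half-maximal inhibitory concentrations.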

[8] = Table 9 experiment, HepaRG cells, 20,000 cells per well, electroporation with 5,000 nM antisense oligonucleotide, approx. 24 hours, PKK mRNA by RT-PCR (RTS3454), relative to untreated control cells
[9] = Table 10 experiment, HepaRG cells, 20,000 cells per well, electroporation with 5,000 nM antisense oligonucleotide, approx. 24 hours, PKK mRNA by RT-PCR (RTS3454), relative to untreated control cells
[10] = HepaRG cells, electroporation, approximately 16 hours, Table 41
[11] = 4 point dose response, HepaRG cells, Table 41
[12] = Table 34, HepaRG, electroporation, ~16 h
[13] = Table 34, PKK mRNA, HepaRG, electroporation, ~16 h
[14] = HepaRG cells, electroporation, approximately 16 hours, Table 39

Row | Substance | % inhibition [1, 8] | % inhibition [1, 9] | percent inhibition of PKK at 5.00 μM [2, 10] | percent inhibition of PKK at 0.19 0μM [2, 10] | percent inhibition of PKK at 0.56 0μM [2, 10] | percent inhibition of PKK at 1.67 1μM [2, 10] | IC50 [2, 11] | percent inhibition of PKK at 0.19 μM [2, 12] | percent inhibition of PKK at 0.56 μM [2, 12] | percent inhibition of PKK at 1.67 μM [2, 12] | percent inhibition of PKK at 5.00 μM [2, 12] | % inhibition of PKK mRNA in the transgenic mice liver relative to the PBS control ([3]; 2.5 mg/kg/week sc) | % inhibition of PKK mRNA in the transgenic mice liver relative to the PBS control ([3]; 10 mg/kg/week sc) | % inhibition of PKK mRNA in the transgenic mice liver relative to the PBS control ([3]; 20 mg/kg/week sc) | % inhibition of PKK protein levels in the transgenic mice relative to the PBS control ([4]; 2.5 mg/kg/week sc) | % inhibition of PKK protein levels in the transgenic mice relative to the PBS control ([4]; 10 mg/kg/week sc) | % inhibition of PKK protein levels in the transgenic mice relative to the PBS control ([4]; 20 mg/kg/week sc) | % inhibition of PKK mRNA in the cynomolgus monkey liver relative to the PBS control [5] | % inhibition of PKK mRNA in the transgenic mice liver relative to the PBS control ([3]; 5 mg/kg/week sc) | % inhibition of PKK protein levels in the transgenic mice relative to the PBS control ([4]; 5 mg/kg/week sc) | further results
1 | 546343 (antisense e[5mC]*e[5mC]*e[5mC]*e[5mC]*e[5mC]*dT*dT*d[5mC]*dT*dT*dT*dA*dT*dA*dG*e[5mC]*e[5mC]*eA*eG*e[5mC]) [compound 546343] | 97% | 91% | 95% | 37% | 32% | 83% | 0.4 µM | 28% | 64% | 87% | 87% | 46% | 66% | 86% | 0% | 38% | 79% | 74% |  |  | IC50 [2, 13]: 0.4 µM
2 | 546828 (eA*e[5mC]*eA*eG*eT*dA*dT*d[5mC]*dA*d[5mC]*dT*dG*dT*dA*d[5mC]*eT*eA*eG*eT*eT) [compound 546828] |  |  | 97% | 0% | 64% | 89% | 0.2 µM | 39% | 58% | 87% | 93% | 77% | 32% | 83% | 0% | 36% | 93% | 45% | 62% | 25% | % inhibition ([1]; Table 13, human PKK mRNA in HepaRG cells, 5-10-5 gapmers): 95%; IC50 [2, 13]: 0.3 µM
3 | 547457 (antisense eA*eA*eG*eG*e[5mC]*dG*dA*dT*dA*dT*d[5mC]*dA*dT*dG*dA*eT*eT*e[5mC]*e[5mC]*e[5mC]) [compound 547457] | 89% | 92% |  |  |  |  |  |  |  |  |  | 0% | 45% | 62% | 0% | 31% | 60% | 89% | 69% | 4% | percent inhibition of PKK at 0.19 μM [2, 14]: 41%; percent inhibition of PKK at 0.56 μM [2, 14]: 65%; percent inhibition of PKK at 1.67 μM [2, 14]: 80%; percent inhibition of PKK at 5.00 μM [2, 14]: 85%; IC50 ([2]; 4 point dose response, HepaRG cells, Table 39): 0.3 µM; percent inhibition of PKK mRNA, 0.19 μM ([2]; HepaRG cells, 0.19 μM antisense oligonucleotide): 33%; percent inhibition of PKK mRNA, 0.56 μM ([2]; HepaRG cells, 0.56 μM antisense oligonucleotide): 42%; percent inhibition of PKK mRNA, 1.67 μM ([2]; HepaRG cells, 1.67 μM antisense oligonucleotide): 70%; percent inhibition of PKK mRNA, 5.00 μM ([2]; HepaRG cells, 5.00 μM antisense oligonucleotide): 83%; IC50 ([2]; HepaRG cells, 0.19-5.00 μM): 0.6 µM
4 | 547927 (eA*eT*kG*dG*dT*d[5mC]*d[5mC]*dG*dA*d[5mC]*dA*d[5mC]*dA*k[5mC]*kA*eA) [compound 547927] |  |  |  |  |  |  |  |  |  |  |  | 35% | 93% | 71% | 25% |  | 80% | 54% | 52% | 21% | % inhibition [6]: 79%; percent inhibition of PKK mRNA, 0.11 μM ([7]; 0.11 μM): 56%; percent inhibition of PKK mRNA, 0.33 μM ([7]; 0.33 μM): 64%; percent inhibition of PKK mRNA, 1.00 μM ([7]; 1.00 μM): 92%; percent inhibition of PKK mRNA, 3.00 μM ([7]; 3.00 μM): 88%
